Test results published in ChEMBL document CHEMBL1132883, “Cyclopentadienyltricarbonylrheniumbenzazepines: synthesis and binding affinity” (Bioorg Med Chem Lett, 2000).

Tests used:
Assay type in all cases: tissue-based
[1] = molecular target: T1, 5-hydroxytryptamine receptor 2C (Rattus norvegicus, UniProt P08909); assay: Compound was evaluated for affinity towards cerebral 5-hydroxytryptamine 2C receptor in homogenate of caudate putamen tissue from rat brain
T1 sequence (P08909 whole entry): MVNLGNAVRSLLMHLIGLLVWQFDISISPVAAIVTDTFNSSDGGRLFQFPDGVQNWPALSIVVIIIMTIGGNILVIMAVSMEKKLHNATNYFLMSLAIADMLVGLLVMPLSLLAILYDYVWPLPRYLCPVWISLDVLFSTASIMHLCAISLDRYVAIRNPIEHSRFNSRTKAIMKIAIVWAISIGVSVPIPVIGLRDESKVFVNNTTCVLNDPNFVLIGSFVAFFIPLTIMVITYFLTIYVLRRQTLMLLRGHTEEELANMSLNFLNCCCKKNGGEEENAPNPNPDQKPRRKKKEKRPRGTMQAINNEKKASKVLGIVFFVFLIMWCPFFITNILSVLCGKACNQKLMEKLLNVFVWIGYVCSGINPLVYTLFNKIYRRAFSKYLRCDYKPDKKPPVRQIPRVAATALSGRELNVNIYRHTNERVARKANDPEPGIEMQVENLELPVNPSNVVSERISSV

[2] = molecular target: 5-hydroxytryptamine receptor 2A (Rattus norvegicus, UniProt P14842); assay: Compound was evaluated for affinity towards cerebral 5-hydroxytryptamine 2A receptor in homogenate of caudate putamen tissue from rat brain
D(1A) dopamine receptor = D(1A) dopamine receptor (Rattus norvegicus, UniProt P18901); assay: Compound was evaluated for affinity towards dopamine D1-like receptor in homogenate of caudate putamen tissue from rat brain
Sequence of D(1A) dopamine receptor (P18901 whole entry): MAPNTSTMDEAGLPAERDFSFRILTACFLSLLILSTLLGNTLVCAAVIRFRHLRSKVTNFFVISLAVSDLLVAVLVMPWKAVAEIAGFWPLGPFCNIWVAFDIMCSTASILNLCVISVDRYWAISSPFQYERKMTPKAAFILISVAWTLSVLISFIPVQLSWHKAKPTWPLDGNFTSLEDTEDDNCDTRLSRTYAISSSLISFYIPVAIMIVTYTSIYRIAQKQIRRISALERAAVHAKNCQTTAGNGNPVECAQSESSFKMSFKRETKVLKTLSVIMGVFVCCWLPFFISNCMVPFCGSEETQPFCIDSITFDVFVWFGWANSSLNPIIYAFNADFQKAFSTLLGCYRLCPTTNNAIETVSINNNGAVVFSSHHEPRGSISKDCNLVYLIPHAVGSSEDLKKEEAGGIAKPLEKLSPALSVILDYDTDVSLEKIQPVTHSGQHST

Sequence of 5-hydroxytryptamine receptor 2A (P14842 whole entry): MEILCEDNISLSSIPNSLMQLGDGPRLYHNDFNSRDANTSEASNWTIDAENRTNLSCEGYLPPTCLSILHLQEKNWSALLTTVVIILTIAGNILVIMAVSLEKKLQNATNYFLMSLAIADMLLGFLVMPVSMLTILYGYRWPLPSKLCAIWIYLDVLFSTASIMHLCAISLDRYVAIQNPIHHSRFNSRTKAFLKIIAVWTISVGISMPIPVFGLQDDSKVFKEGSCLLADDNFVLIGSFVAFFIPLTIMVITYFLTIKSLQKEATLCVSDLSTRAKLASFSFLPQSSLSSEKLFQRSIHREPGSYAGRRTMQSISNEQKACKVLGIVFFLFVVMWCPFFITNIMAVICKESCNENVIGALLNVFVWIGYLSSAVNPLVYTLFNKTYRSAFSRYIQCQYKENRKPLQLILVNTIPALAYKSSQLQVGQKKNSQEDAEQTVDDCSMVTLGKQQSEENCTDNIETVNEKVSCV

Ki [1] [nM]	Ki [2] [nM]	Ki (D(1A) dopamine receptor) [nM]	SMILES
12.5	10.8	–	CN1CCc2cc(Cl)c(O)cc2[C@@H](c2ccccc2)C1 [SCH-23390]
11.8	22.1	0.7	CN1CCc2cc(Cl)c(O)cc2C(c2ccccc2Br)C1 (stereo not drawn)
2.08	8.5	0.26	CN1CCc2cc(Cl)c(O)cc2C(c2cccc(Br)c2)C1 (stereo not drawn)
